Test results as given in ChEMBL document CHEMBL5038623, “Synthesis and bioactivities of new N-terminal dipeptide mimetics with aromatic amide moiety: Broad-spectrum antibacterial activity and high antineoplastic activity” (Eur J Med Chem, 2022).
In brackets after ≈: the same amount, converted by molar mass. Activity calls are given as the source filed them. The rule behind the calls is not given here.

What was measured:
Staphylococcus aureus [1] = experiment: Antibacterial activity against Staphylococcus aureus ATCC 6538 assessed as reduction in microbial growth after 24 hrs by broth dilution method; type: functional
[2] = Hemolytic activity in rabbit RBC measured after 1 hrs by microplate reader assay; type: toxicity, cell-based, Oryctolagus cuniculus, Erythrocyte; details: rabbit red blood cells (RBC)
Klebsiella pneumoniae = experiment: Antibacterial activity against Klebsiella pneumoniae ATCC 700603 assessed as reduction in microbial growth after 24 hrs by broth dilution method; type: functional
Escherichia coli [3] = experiment: Antibacterial activity against Escherichia coli ATCC25922 assessed as zone of inhibition incubated for 12 hrs by disc diffusion method; type: functional, ATCC 25922
Staphylococcus aureus [4] = experiment: Antibacterial activity against Staphylococcus aureus ATCC 6538 assessed as zone of inhibition incubated for 12 hrs by disc diffusion method; type: functional
Escherichia coli [5] = experiment: Antibacterial activity against Escherichia coli ATCC25922 assessed as reduction in microbial growth after 24 hrs by broth dilution method; type: functional; details: ATCC 25922
[6] = Selectivity index, HC50 for hemolytic activity in rabbit RBC to MIC for antibacterial activity against methicillin-resistant Staphylococcus aureus ATCC 33591; type: toxicity; details: rabbit red blood cells (RBC), read-out: Selectivity Index
Staphylococcus aureus [7] = experiment: Antibacterial activity against methicillin-resistant Staphylococcus aureus ATCC 33591 assessed as MIC incubated for 12 hrs
Staphylococcus aureus [8] = experiment: Antibacterial activity against Staphylococcus aureus incubated with 50% plasma (unknown origin) measured after 8 hrs; type: functional
Escherichia coli [9] = experiment: Antibacterial activity against Escherichia coli assessed as fold change of bacterial growth inhibition incubated with 50% blood (unknown origin); type: functional
Escherichia coli [10] = experiment: Bactericidal activity against Escherichia coli assessed as changes in cell morphology incubated for 3 hrs by SEM analysis; type: functional, organism-based
Staphylococcus aureus [11] = experiment: Antibiofilm activity against Staphylococcus aureus at 160 ug/ml after 24 hrs by crystal violet staining based assay; type: functional; details: dose 160 µg/ml
SGC-7901 [12] = experiment: Induction of apoptosis in human SGC-7901 cells assessed as apoptosis rate level at 50 ug/ml incubated for 24 hrs by annexin V-FITC/propidium iodide staining based flow cytometric analysis (reference value: 7.44%); type: functional; details: dose 50 µg/ml
L929 [13] = experiment: Cytotoxicity against mouse L929 cells assessed as reduction in cell viability at 1000 ug/ml incubated for 24 hrs by MTT assay; type: toxicity, cell-based; details: l929, 24 h, at 1000 µg/mL
Escherichia coli [14] = experiment: Antibacterial activity against Escherichia coli at sub-MIC treated over 16 serial passages measured after 24 hrs by resistance development assay; type: functional, organism-based
SGC-7901 [15] = experiment: Induction of apoptosis in human SGC-7901 cells assessed as apoptosis rate at 5 ug/ml incubated for 24 hrs by annexin V-FITC/propidium iodide staining based flow cytometric analysis (reference value: 7.44%); type: functional; details: dose 5 µg/ml
Escherichia coli [16] = experiment: Antibacterial activity against Escherichia coli assessed as bacterial growth inhibition incubated with 50% serum (unknown origin); type: functional, organism-based
L929 [17] = experiment: Cytotoxicity against mouse L929 cells assessed as reduction in cell viability at 15.6 ug/ml incubated for 24 hrs by MTT assay; type: toxicity, cell-based; details: l929, 24 h, dose 15.6 µg/ml
Staphylococcus aureus [18] = experiment: Antibiofilm activity against Staphylococcus aureus at 320 ug/ml after 24 hrs by crystal violet staining based assay; type: functional; details: dose 320 µg/ml
SGC-7901 [19] = experiment: Cytotoxicity against human SGC-7901 cells assessed as reduction in cell viability after 24 hrs by MTT assay; type: functional, cell-based; details: SGC-7901, 24 h
SGC-7901 [20] = experiment: Induction of apoptosis in human SGC-7901 cells assessed as apoptosis rate at 25 ug/ml incubated for 24 hrs by annexin V-FITC/propidium iodide staining based flow cytometric analysis (reference value: 7.44%); type: functional; details: dose 25 µg/ml
Escherichia coli [21] = experiment: Antibiofilm activity against Escherichia coli at 80 ug/ml after 72 hrs by crystal violet staining based assay; type: functional; details: dose 80 µg/ml
Escherichia coli [22] = experiment: Antibiofilm activity against Escherichia coli at 160 ug/ml after 72 hrs by crystal violet staining based assay; type: functional; details: dose 160 µg/ml
Staphylococcus aureus [23] = experiment: Antibacterial activity against Staphylococcus aureus assessed as bacterial growth inhibition incubated with 50% serum (unknown origin); type: functional, organism-based
L929 [24] = experiment: Cytotoxicity against mouse L929 cells assessed as reduction in cell viability at 31.5 to 125 ug/ml incubated for 24 hrs by MTT assay; type: toxicity, cell-based; details: l929, 24 h, at 31.5 to 125 µg/mL, dose 31.5-125 µg/ml
Staphylococcus aureus [25] = experiment: Antibacterial activity against Staphylococcus aureus at sub-MIC measured treated over 16 serial passages after 24 hrs by resistance development assay; type: functional, organism-based
Staphylococcus aureus [26] = experiment: Antibacterial activity against Staphylococcus aureus incubated with 50% plasma (unknown origin) measured after 4 hrs; type: functional, organism-based
Staphylococcus aureus [27] = experiment: Antibacterial activity against Staphylococcus aureus assessed as fold change of bacterial growth inhibition incubated with 50% blood (unknown origin); type: functional
Staphylococcus aureus [28] = experiment: Bactericidal activity against Staphylococcus aureus assessed as changes in cell morphology incubated for 3 hrs by SEM analysis; type: functional, organism-based
Staphylococcus aureus [29] = experiment: Antibiofilm activity against Staphylococcus aureus at 80 ug/ml after 24 hrs by crystal violet staining based assay; type: functional; details: dose 80 µg/ml
Escherichia coli [30] = experiment: Antibiofilm activity against Escherichia coli at 40 ug/ml after 72 hrs by crystal violet staining based assay; type: functional; details: dose 40 µg/ml
Escherichia coli [31] = experiment: Antibiofilm activity against Escherichia coli at 20 ug/ml after 72 hrs by crystal violet staining based assay; type: functional; details: dose 20 µg/ml
Escherichia coli [32] = experiment: Bactericidal activity against Escherichia coli measured after 7 hrs by time-kill dilution assay relative to control; type: functional, organism-based
Escherichia coli [33] = experiment: Antibiofilm activity against Escherichia coli at 320 ug/ml after 72 hrs by crystal violet staining based assay; type: functional; details: dose 320 µg/ml
Escherichia coli [34] = experiment: Bactericidal activity against Escherichia coli at 2MIC measured after 1 hrs by time-kill dilution assay relative to control; type: functional
Staphylococcus aureus [35] = experiment: Antibacterial activity against Staphylococcus aureus assessed as fold change of bacterial growth inhibition incubated with 50% plasma (unknown origin); type: functional
Escherichia coli [36] = experiment: Bactericidal activity against Escherichia coli at 4MIC measured after 1 hrs by time-kill dilution assay relative to control; type: functional
Escherichia coli [37] = experiment: Antibacterial activity against Escherichia coli assessed as fold change of bacterial growth inhibition incubated with 50% plasma (unknown origin); type: functional

SMILES: C#Cc1ccc(NC(=O)[C@@H](N)Cc2ccccc2)cc1
- MIC (Staphylococcus aureus [1]): 10 µg/mL
- HC50 at 1 h [2]: > 1250 µg/mL
- MIC (Klebsiella pneumoniae): 39 µg/mL
- diameter of the inhibition zone (DIZ) (Escherichia coli [3]): 10 mm
- diameter of the inhibition zone (DIZ) (Staphylococcus aureus [4]): 13 mm
- MIC (Escherichia coli [5]): 39 µg/mL
- selectivity ratio [6]: > 125
- MIC (Staphylococcus aureus [7]): 10 µg/mL (≈ 37.8 µM)

SMILES: CCCCCCNC(=O)[C@@H](N)C(C)C
- MIC (Staphylococcus aureus [1]): 39 µg/mL
- HC50 at 1 h [2]: 392 µg/mL
- MIC (Klebsiella pneumoniae): 78 µg/mL
- diameter of the inhibition zone (DIZ) (Escherichia coli [3]): 16.4 mm
- diameter of the inhibition zone (DIZ) (Staphylococcus aureus [4]): 12 mm
- MIC (Escherichia coli [5]): 20 µg/mL
- selectivity ratio [6]: 10
- MIC (Staphylococcus aureus [7]): 78 µg/mL (≈ 389 µM)

SMILES: C#Cc1ccc(NC(=O)[C@@H](N)Cc2c[nH]c3ccccc23)cc1
- MIC (Staphylococcus aureus [1]): 78 µg/mL
- HC50 at 1 h [2]: > 1250 µg/mL
- MIC (Klebsiella pneumoniae): 156 µg/mL
- diameter of the inhibition zone (DIZ) (Escherichia coli [3]): 6.5 mm
- diameter of the inhibition zone (DIZ) (Staphylococcus aureus [4]): 10 mm
- MIC (Escherichia coli [5]): 156 µg/mL
- selectivity ratio [6]: > 16
- MIC (Staphylococcus aureus [7]): 78 µg/mL (≈ 257 µM)

SMILES: C#Cc1ccc(NC(=O)[C@@H](N)C(C)CC)cc1 (stereo partly drawn)
- MIC (Staphylococcus aureus [1]): 39 µg/mL
- HC50 at 1 h [2]: 813 µg/mL
- MIC (Klebsiella pneumoniae): 39 µg/mL
- diameter of the inhibition zone (DIZ) (Escherichia coli [3]): 12.3 mm
- diameter of the inhibition zone (DIZ) (Staphylococcus aureus [4]): 12 mm
- MIC (Escherichia coli [5]): 20 µg/mL
- selectivity ratio [6]: 20.8
- MIC (Staphylococcus aureus [7]): 39 µg/mL (≈ 169 µM)

SMILES: C#Cc1cccc(NC(=O)[C@@H](N)C(C)C)c1
- MIC (Staphylococcus aureus [1]): 10 µg/mL
- HC50 at 1 h [2]: 836 µg/mL
- MIC (Klebsiella pneumoniae): 20 µg/mL
- diameter of the inhibition zone (DIZ) (Escherichia coli [3]): 15.4 mm
- diameter of the inhibition zone (DIZ) (Staphylococcus aureus [4]): 15.7 mm
- MIC (Escherichia coli [5]): 10 µg/mL
- selectivity ratio [6]: 83.6
- MIC (Staphylococcus aureus [7]): 20 µg/mL (≈ 92.5 µM)

SMILES: CC(C)[C@H](N)C(=O)Nc1ccccc1
- MIC (Staphylococcus aureus [1]): > 1250 µg/mL
- MIC (Klebsiella pneumoniae): > 1250 µg/mL
- MIC (Escherichia coli [5]): > 1250 µg/mL

SMILES: C#Cc1ccc(NC(=O)[C@@H](N)C(C)C)cc1
- fold change (FC) (Staphylococcus aureus [8]): 2
- fold change (FC) (Escherichia coli [9]): 4
- Activity (Escherichia coli [10]): Active
- Activity (Staphylococcus aureus [11]): 85.4%
- Activity (SGC-7901 [12]): 50.36%
- Activity (L929 [13]): 70%
- MIC (Staphylococcus aureus [1]): 2.5 µg/mL
- Activity (Escherichia coli [14]): inactive
- HC50 at 1 h [2]: 891 µg/mL
- Activity (SGC-7901 [15]): 9.71%
- MIC (Klebsiella pneumoniae): 5 µg/mL
- Activity (Escherichia coli [16]): inactive
- Activity (L929 [17]): Non-Toxic
- Activity (Staphylococcus aureus [18]): 91%
- IC50 (SGC-7901 [19]): 70.8 µg/mL (≈ 327 µM)
- Activity (SGC-7901 [20]): 11.46%
- Activity (Escherichia coli [21]): 77.3%
- Activity (Escherichia coli [22]): 81.5%
- Activity (Staphylococcus aureus [23]): inactive
- Activity (L929 [24]): 85%
- Activity (Staphylococcus aureus [25]): inactive
- Activity (Staphylococcus aureus [26]): Active
- fold change (FC) (Staphylococcus aureus [27]): 4
- diameter of the inhibition zone (DIZ) (Escherichia coli [3]): 20 mm
- diameter of the inhibition zone (DIZ) (Staphylococcus aureus [4]): 21.8 mm
- Activity (Staphylococcus aureus [28]): Active
- Activity (Staphylococcus aureus [29]): 77.5%
- MIC (Escherichia coli [5]): 5 µg/mL
- Activity (Escherichia coli [30]): 66.2%
- Activity (Escherichia coli [31]): 47.5%
- Activity (Escherichia coli [32]): Active
- selectivity ratio [6]: 356
- Activity (Escherichia coli [33]): 93.5%
- Activity (Escherichia coli [34]): 62.2%
- fold change (FC) (Staphylococcus aureus [35]): 2
- Activity (Escherichia coli [36]): 0.4%
- MIC (Staphylococcus aureus [7]): 5 µg/mL (≈ 23.1 µM)
- fold change (FC) (Escherichia coli [37]): 2

SMILES: CC(C)[C@H](N)C(=O)Nc1ccc(I)cc1
- MIC (Staphylococcus aureus [1]): 20 µg/mL
- HC50 at 1 h [2]: 794 µg/mL
- MIC (Klebsiella pneumoniae): 39 µg/mL
- diameter of the inhibition zone (DIZ) (Staphylococcus aureus [4]): 17.6 mm
- MIC (Escherichia coli [5]): 39 µg/mL
- selectivity ratio [6]: 39.7
- MIC (Staphylococcus aureus [7]): 20 µg/mL (≈ 62.9 µM)

SMILES: CC(C)C(NC(=O)[C@H](N)Cc1ccccc1)C(=O)O (stereo partly drawn)
- MIC (Staphylococcus aureus [1]): > 1250 µg/mL
- MIC (Klebsiella pneumoniae): > 1250 µg/mL
- diameter of the inhibition zone (DIZ) (Escherichia coli [3]): <6 mm
- diameter of the inhibition zone (DIZ) (Staphylococcus aureus [4]): <6 mm
- MIC (Escherichia coli [5]): > 1250 µg/mL
